In general, IC50 refers to the concentration needed to halve the response being measured. Higher therefore signals lower potency.

Where only a bound is given, the exact number is not on record here.

The target of the assay is T1, human TLR9 (Homo sapiens, UniProt Q9NR96).
T1 construct: host or cells: HEK-Blue cells
T1 sequence (Q9NR96 26-1032): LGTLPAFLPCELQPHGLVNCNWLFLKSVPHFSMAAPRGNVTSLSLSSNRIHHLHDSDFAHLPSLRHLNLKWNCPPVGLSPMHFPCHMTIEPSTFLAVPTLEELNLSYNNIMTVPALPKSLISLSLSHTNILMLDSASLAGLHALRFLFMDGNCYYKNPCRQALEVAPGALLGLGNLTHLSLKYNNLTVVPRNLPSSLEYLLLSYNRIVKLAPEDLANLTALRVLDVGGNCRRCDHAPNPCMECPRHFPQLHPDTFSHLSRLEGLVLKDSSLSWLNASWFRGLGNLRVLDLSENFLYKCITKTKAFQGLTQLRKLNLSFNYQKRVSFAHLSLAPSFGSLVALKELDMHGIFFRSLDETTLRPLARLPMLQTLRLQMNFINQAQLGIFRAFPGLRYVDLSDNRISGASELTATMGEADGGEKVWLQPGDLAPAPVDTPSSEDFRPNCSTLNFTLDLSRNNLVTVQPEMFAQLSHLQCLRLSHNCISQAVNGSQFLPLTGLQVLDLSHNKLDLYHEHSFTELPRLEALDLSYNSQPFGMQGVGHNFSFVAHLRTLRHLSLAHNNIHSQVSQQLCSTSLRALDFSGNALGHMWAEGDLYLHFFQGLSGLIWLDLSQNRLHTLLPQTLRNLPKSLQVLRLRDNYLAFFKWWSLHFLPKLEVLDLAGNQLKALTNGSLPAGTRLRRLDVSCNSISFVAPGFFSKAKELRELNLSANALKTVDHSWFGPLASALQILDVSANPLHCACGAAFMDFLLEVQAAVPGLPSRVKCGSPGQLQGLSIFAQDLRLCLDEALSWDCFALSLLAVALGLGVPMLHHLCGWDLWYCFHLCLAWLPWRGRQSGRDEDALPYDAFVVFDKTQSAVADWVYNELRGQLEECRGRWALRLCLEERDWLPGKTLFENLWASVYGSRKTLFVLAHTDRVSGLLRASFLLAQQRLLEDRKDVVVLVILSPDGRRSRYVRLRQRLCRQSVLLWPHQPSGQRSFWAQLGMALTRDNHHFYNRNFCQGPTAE
The assay is described as follows: TLR9 inhibition reporter assay (HEK-Blue SEAP). Particulars: HEK-Blue cells overexpressing human TLR9, ODN2006 5 nM, 22 hour incubation. It is filed as cell-based. The procedure, abridged: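 Agonists used: gardiquimod 7.5 μM (TLR7), R848 15.9 μM (TLR8), ODN2006 5 nM (TLR9), added after 30 min room-temperature compound pre-treatment (0.05 nM–50 μM) of receptor-overexpressing HEK-Blue cells. SEAP reporter (NF-κB/AP-1 driven) read after 22 h at 37 °C; inhibition scaled between agonist+DMSO and reference-inhibitor wells.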
Turning to `Cc1c(-c2cc3[nH]c(=O)n(C4CCC(N5CC(F)C5)CC4)c3cc2C(C)C)cn2ncnc2c1C` (stereo not shown) [Example 280, 5-(7,8-dimethyl-[1,2,4]triazolo[1,5-a]pyridin-6-yl)-1-(4-(3-fluoroazetidin-1-yl)cyclohexyl)-6-isopropyl-1,3-dihydro-2H-benzo[d]imidazol-2-one], the IC50 is 20.6 µM. In other words, the double-digit micromolar range.
In the case of `Cc1c(-c2cc3[nH]c(=O)n([C@@H]4CCCNC4)c3cc2C(C)C)cn2ncnc2c1C` [119 FC, (R)-5-(7,8-dimethyl-[1,2,4]triazolo[1,5-a]pyridin-6-yl)-6-isopropyl-1-(piperidin-3-yl)-1,3-dihydro-2H-benzo[d]imidazol-2-one] it was 11.7 µM; in that of `Cc1cc2c(cc1-c1cc(C)c3ncnn3c1)[nH]c(=O)n2[C@H]1CC[C@@H](NC(C)C)CC1` [Example 22, 1-((1s,4s)-4-(isopropylamino)cyclohexyl)-6-methyl-5-(8-methyl-[1,2,4]triazolo[1,5-a]pyridin-6-yl)-1,3-dihydro-2H-benzo[d]imidazol-2-one], 4.63 µM.
Consider `COCCNC1CCC(n2c(=O)[nH]c3cc(-c4cn5ncnc5c(OC)c4C)c(C(C)C)cc32)CC1` (stereo not shown) [Example 258], for which the half-inhibitory concentration (IC50) turned out to be 24.3 µM.
In the case of `Cc1cc2c(cc1-c1cc(C)c3ncnn3c1)[nH]c(=O)n2[C@H]1CC[C@@H](NCCC(F)(F)F)CC1` [Example 31] it was 2.96 µM; in that of `COC1CN(C2CCC(n3c(=O)[nH]c4cc(-c5cn6ncnc6c(C)c5C)c(C(C)C)cc43)CC2)C1` (single isomer, unassigned) [Example 278, 5-(7,8-dimethyl-[1,2,4]triazolo[1,5-a]pyridin-6-yl)-6-isopropyl-1-(4-(3-methoxyazetidin-1-yl)cyclohexyl)-1,3-dihydro-2H-benzo[d]imidazol-2-one], 15.2 µM; in that of `Cc1c(-c2cc3[nH]c(=O)n(C4CCC(N5CCC(F)(F)CC5)CC4)c3cc2C(C)C)cn2ncnc2c1C` (single isomer, unassigned) [Example 276, 1-(4-(4,4-difluoropiperidin-1-yl)cyclohexyl)-5-(7,8-dimethyl-[1,2,4]triazolo[1,5-a]pyridin-6-yl)-6-isopropyl-1,3-dihydro-2H-benzo[d]imidazol-2-one], 15.3 µM.
Take `Cc1cc(-c2cc(C)c3ncnn3c2)cc2[nH]c(=O)n(C3CCNCC3)c12` [106 F, 7-methyl-5-(8-methyl-[1,2,4]triazolo[1,5-a]pyridin-6-yl)-1-(piperidin-4-yl)-1,3-dihydro-2H-benzo[d]imidazol-2-one]: the midpoint of inhibition, the IC50, lay at 1.02 µM.
In the case of `COc1c(C)c(-c2cc3[nH]c(=O)n(C4CCC(N5CC(OC)C5)CC4)c3cc2C(C)C)cn2ncnc12` (stereo not shown) [Example 266, 6-isopropyl-5-(8-methoxy-7-methyl-[1,2,4]triazolo[1,5-a]pyridin-6-yl)-1-(4-(3-methoxyazetidin-1-yl)cyclohexyl)-1,3-dihydro-2H-benzo[d]imidazol-2-one] it was 23 µM; in that of `COc1cc(-c2cc3[nH]c(=O)n(C4CCC(N5CCC(OC)C5)CC4)c3cc2C(C)C)cn2ncnc12` (stereo not shown) [Example 285, 6-isopropyl-5-(8-methoxy-[1,2,4]triazolo[1,5-a]pyridin-6-yl)-1-(4-(3-methoxypyrrolidin-1-yl)cyclohexyl)-1,3-dihydro-2H-benzo[d]imidazol-2-one], 8.31 µM; in that of `COc1cc(-c2cc3[nH]c(=O)n(C4CCC(N(C)CCC(F)(F)F)CC4)c3cc2C(C)C)cn2ncnc12` (single isomer, unassigned) [Example 249, 6-isopropyl-5-(8-methoxy-[1,2,4]triazolo[1,5-a]pyridin-6-yl)-1-(4-(methyl(3,3,3-trifluoropropyl)amino)cyclohexyl)-1,3-dihydro-2H-benzo[d]imidazol-2-one], 2 µM.
As to `COc1cc(-c2cc3[nH]c(=O)n(C4CCC(N(C)CCC(F)(F)F)CC4)c3cc2C(C)C)cn2ncnc12` (single isomer, unassigned) [Example 248, 6-isopropyl-5-(8-methoxy-[1,2,4]triazolo[1,5-a]pyridin-6-yl)-1-(4-(methyl(3,3,3-trifluoropropyl)amino)cyclohexyl)-1,3-dihydro-2H-benzo[d]imidazol-2-one], the IC50 turned out to be 9.77 µM.
As for `Cc1cc2c(cc1-c1cc(C)c3ncnn3c1)[nH]c(=O)n2C1CCNCC1` [1 EA, 6-methyl-5-(8-methyl-[1,2,4]triazolo[1,5-a]pyridin-6-yl)-1-(piperidin-4-yl)-1,3-dihydro-2H-benzo[d]imidazol-2-one], the IC50 is 5.45 µM.
In the case of `COc1cc(-c2cc3[nH]c(=O)n(C4CCC(N5CCSCC5)CC4)c3cc2C(C)C)cn2ncnc12` (stereo not shown) [Example 251, 6-isopropyl-5-(8-methoxy-[1,2,4]triazolo[1,5-a]pyridin-6-yl)-1-(4-thiomorpholinocyclohexyl)-1,3-dihydro-2H-benzo[d]imidazol-2-one] it was 11.9 µM.
Next, `COc1cc(-c2cc3[nH]c(=O)n(C4CCC(N5CCC(OC)C5)CC4)c3cc2C(C)C)cn2ncnc12` (stereo not shown) [Example 284, 6-isopropyl-5-(8-methoxy-[1,2,4]triazolo[1,5-a]pyridin-6-yl)-1-(4-(3-methoxypyrrolidin-1-yl)cyclohexyl)-1,3-dihydro-2H-benzo[d]imidazol-2-one]: 3.56 µM.
Turning to `Cc1c(-c2cc3[nH]c(=O)n(C4CCC(N5CC6(COC6)C5)CC4)c3cc2C(C)C)cn2ncnc2c1C` (single isomer, unassigned) [Example 281, 1-(4-(2-oxa-6-azaspiro[3.3]heptan-6-yl)cyclohexyl)-5-(7,8-dimethyl-[1,2,4]triazolo[1,5-a]pyridin-6-yl)-6-isopropyl-1,3-dihydro-2H-benzo[d]imidazol-2-one], 13.1 µM corresponded to half-maximal inhibition (IC50).
Next, `COc1c(C)c(-c2cc3[nH]c(=O)n(C4CCC(NCC5(S(C)(=O)=O)CC5)CC4)c3cc2C(C)C)cn2ncnc12` (single isomer, unassigned) [Example 260]: 6.36 µM; `Cc1cc2c(cc1-c1cc(C)c3ncnn3c1)[nH]c(=O)n2[C@@H]1CCCN(C2COC2)C1` [Example 18, (R)-6-methyl-5-(8-methyl-[1,2,4]triazolo[1,5-a]pyridin-6-yl)-1-(1-(oxetan-3-yl)piperidin-3-yl)-1,3-dihydro-2H-benzo[d]imidazol-2-one]: greater than 50 µM; `COc1c(C)c(-c2cc3[nH]c(=O)n(C4CCC(N5CC(F)C5)CC4)c3cc2C(C)C)cn2ncnc12` (single isomer, unassigned) [Example 263, 1-(4-(3-fluoroazetidin-1-yl)cyclohexyl)-6-isopropyl-5-(8-methoxy-7-methyl-[1,2,4]triazolo[1,5-a]pyridin-6-yl)-1,3-dihydro-2H-benzo[d]imidazol-2-one]: 19.7 µM.
As for `Cc1cc2c(cc1-c1cc(C)c3ncnn3c1)[nH]c(=O)n2[C@H]1CC[C@H](NC(C)C)CC1` [Example 25, 1-((1r,4s)-4-(isopropylamino)cyclohexyl)-6-methyl-5-(8-methyl-[1,2,4]triazolo[1,5-a]pyridin-6-yl)-1,3-dihydro-2H-benzo[d]imidazol-2-one], the IC50 was found to be 4.35 µM.
In the case of `COc1c(C)c(-c2cc3[nH]c(=O)n(C4CCC(N5CC(OC)C5)CC4)c3cc2C(C)C)cn2ncnc12` (stereo not shown) [Example 265, 6-isopropyl-5-(8-methoxy-7-methyl-[1,2,4]triazolo[1,5-a]pyridin-6-yl)-1-(4-(3-methoxyazetidin-1-yl)cyclohexyl)-1,3-dihydro-2H-benzo[d]imidazol-2-one] it was 19.1 µM; in that of `Cc1cc2c(cc1-c1cc(C)c3ncnn3c1)[nH]c(=O)n2[C@H]1CC[C@@H](N)CC1` [1 EE], 2.16 µM; in that of `Cc1cc2c(cc1-c1cc(C)c3ncnn3c1)[nH]c(=O)n2[C@H]1CC[C@H](N(C)C)CC1` [Example 23, 1-((1r,4r)-4-(dimethylamino)cyclohexyl)-6-methyl-5-(8-methyl-[1,2,4]triazolo[1,5-a]pyridin-6-yl)-1,3-dihydro-2H-benzo[d]imidazol-2-one], 5.66 µM.
For the molecule `CCN(CC)[C@H]1CC[C@@H](n2c(=O)[nH]c3cc(-c4cc(C)c5ncnn5c4)c(C)cc32)CC1` [Example 20, 1-((1s,4s)-4-(diethylamino)cyclohexyl)-6-methyl-5-(8-methyl-[1,2,4]triazolo[1,5-a]pyridin-6-yl)-1,3-dihydro-2H-benzo[d]imidazol-2-one], the IC50 worked out at 3.35 µM.
Next, `COCCNC1CCC(n2c(=O)[nH]c3cc(-c4cn5ncnc5c(OC)c4C)c(C(C)C)cc32)CC1` (stereo not shown) [Example 257]: 23.3 µM.
